One data set can be described thus: PK in rat (i.v./po). The data set is classed as in vivo. As to conditions: male, plasma, Sprague–Dawley rats, 5 mg/kg po vs 1 mg/kg i.v. The procedure: Male CD-1 mice and male Sprague–Dawley rats were administered a single dose of BPN-15606 by i.v. or oral gavage (po) dose routes to assess oral bioavailability. Mice and rats received BPN-15606 as a single i.v. dose at 1 mg/kg (n = 5) or a single po dose at 5 mg/kg (n = 5). Blood was collected from mice and rats at 5 (i.v. only), 15, and 30 minutes, and 1, 2, 4, 8, and 12 hours postdose for processing to plasma. For mice, brains were collected from both dose groups (i.v. and po) at 1, 4, 8, and 12 hours postdose. For rats, brains were collected from those same animals at the 12-hour time point only. […]
Data were subjected to noncompartmental analysis using WinNonlin Phoenix Model 200 (for extravascular administration) or Model 201 (for i.v. bolus administration) and the sparse sampling feature; a uniform weighting factor was applied to each data set. Time to maximum plasma concentration (Tmax) and maximum plasma concentration (Cmax) values were determined directly from the data. Area under the plasma concentration–time curve to the last time point (AUClast) values were calculated using the log/linear trapezoidal (i.v. dose) or linear up/log down trapezoidal (po dose). Values were calculated using the plasma data from composite groups. […] The volume of distribution at steady state and clearance were calculated using the i.v. group data. […]

The test system of another data set is Aβ42 and Aβ40 levels. Put plainly: Acute single-dose pharmacodynamics in mice. Particulars: single oral dose 25 mg/kg, C57BL/6 mice. The format is in vivo, C57BL/6J mice. As to the method: Male C57BL/6J mice (n = 5 per group) were administered a single dose of either vehicle (80% polyethylene glycol 400 v/v; 20% sterile water v/v and 0.1% Tween 20 v/v) or BPN-15606 (25 mg/kg) by po and sacrificed at 0.5, 1, 2, 4, 8, 12, and 24 hours following the dosing. Plasma and brain extracts were prepared, and Aβ peptides were quantitated as described previously ([Kounnas et al., 2010]). Statistical analysis was performed as described above for the repeat dosing studies.

Data set [1] is described as follows: Toxicokinetics in NHP (300 mg/kg repeat dose). The format is in vivo, cynomolgus macaques. Particulars: cynomolgus monkey. The procedure:
(§1) The objectives of this study were to determine the MTD of BPN-15606, characterize potential toxicity, and calculate toxicokinetic parameters of BPN-15606 in adult male and female cynomolgus macaques following daily po dose administration at a near-MTD dose of BPN-15606 for 7 consecutive days. In the dose escalation phase to establish the MTD (phase A), male and female cynomolgus macaques (n = 2/sex) were administered single doses of BPN-15606 at 3, 10, 30, 100, and 300 mg/kg, with 2 to 4 days between each dose escalation (Fig. 10). […] The plasma drug concentrations at the approximate Tmax increased in a dose-dependent manner. […] Comprehensive evaluation of clinical pathology parameters (clinical chemistry, hematology), gross pathology, and histopathologic parameters was carried out at SRI International, according to their standardized protocols. Tissues examined histopathologically included the following: liver, lung, stomach, duodenum, colon, spleen, pancreas, thymus, heart, brain, and kidney.

Data set [2] concerns Notch proteolysis by γ-secretase. Put plainly: Notch assay (Myc-tagged Notch NΔE in H4-APP751 neuroglioma cells). The data set is classed as cell-based. As to the method:
Notch assays were carried out as described previously ([Wagner et al., 2014]).

A further data set in a line: in vivo. Particulars: cynomolgus monkey. The procedure: as §1

For orientation: bioavailability means the share of a dose that reaches the circulation, judged against a reference dose that is usually intravenous. As a reminder, the half-life is the time needed for the level to fall by half in the phase considered. Usually Tmax stands for the time at which the peak concentration occurs. As usually defined, the NOAEL is the highest dose or exposure tested at which no adverse effect was seen. `COc1nc(-c2cc(C)c(N[C@@H](C)c3ccc(F)cc3)nn2)ccc1-n1cnc(C)c1` [BPN-15606, (S)-N-(1-(4-fluorophenyl)ethyl)-6-(6-methoxy-5-(4-methyl-1H-imidazol-1-yl)pyridin-2-yl)-4-methylpyridazin-3-amine] came in with a bioavailability in “PK in rat (i.v./po)” of more than 60%. In addition, in the data set with Aβ42 and Aβ40 levels, the “duration of effect on brain and plasma Aβ42 and Aβ40 levels” value was not below 24 h; the “onset of effect on brain and plasma Aβ42 and Aβ40 levels” value is 30 to 60 min. Moreover, in data set [1] (both sexes, plasma, po, 300 mg/kg, cynomolgus macaques, 300 mg/kg po, day 1), the half-life is 8.7 h. In data set [1] (both sexes, plasma, po, 300 mg/kg, cynomolgus macaques, 300 mg/kg po, day 6), this compound had a half-life of 10.2 h. In data set [1] (both sexes, plasma, cynomolgus macaques, 300 mg/kg po), the Tmax was in the range of 2 to 4 h. In data set [1] (both, in vivo, po, 300 mg/kg), the “exposure (AUClast) day 6 relative to day 1” value was “about 1.7 fold”. The Notch proteolysis result in data set [2] (H4-APP751 neuroglioma cells transfected with Myc-tagged Notch (NΔE) construct, Fig. 3) is on record as “does not inhibit Notch proteolysis”. Moreover, the Notch cleavage result in data set [2] (doses as high as 25 μM) was “does not affect Notch cleavage”. In “in vivo” (both sexes), the NOAEL was 30 mg/kg. Further, the MTD in the data set “in vivo” (both sexes, MTD after a single-dose administration) stood at 300 mg/kg. For the same compound, in the data set “in vivo” (both), the “NOEL after a single dose” value amounted to 30 mg/kg; the “clinical signs after single doses” value is “limited to emesis in the 100 and 300 mg/kg groups”. Also, the “clinical pathology parameters after single-dose administration” value in “in vivo” is reported as “no apparent changes”. In addition, in “in vivo” (po, 300 mg/kg), the “clinical signs on repeat dosing” value is “emesis, reduced appetite, and reduced stool”; the “gross findings at necropsy” value is given as “no gross findings at necropsy”; the hepatic histopathological findings entry is “minimal sinusoidal leukocytosis in two male monkeys and moderate focal fatty infiltration in one female monkey”; the renal histopathological findings entry is “mild to moderate proximal tubular necrosis, casts, and dilation with cortical and medullary subacute inflammation”.

For the origin of these results see PMC5454592, “Pharmacological and Toxicological Properties of the Potent Oral γ-Secretase Modulator BPN-15606” (The Journal of Pharmacology and Experimental Therapeutics, 2017).
